We go through 1 compound from article PMC4208292 (Bioorganic & medicinal chemistry letters, 2012).

Data set [1] has as its target smMLCK (Homo sapiens, UniProt Q15746). The experiment in a line: Radioactivity-based enzymatic kinase panel. The class given is biochemical.
Data set [2] has as its target ALK (Homo sapiens, UniProt Q9UM73). The experiment in a line: Kinase-binding assay. To be noted: 10 μM; KINOMEscan profile.
Data set [3] concerns the target T1, FLT3(D835Y) (Homo sapiens, UniProt P36888, D835Y).
T1 sequence (P36888 27-993 D835Y): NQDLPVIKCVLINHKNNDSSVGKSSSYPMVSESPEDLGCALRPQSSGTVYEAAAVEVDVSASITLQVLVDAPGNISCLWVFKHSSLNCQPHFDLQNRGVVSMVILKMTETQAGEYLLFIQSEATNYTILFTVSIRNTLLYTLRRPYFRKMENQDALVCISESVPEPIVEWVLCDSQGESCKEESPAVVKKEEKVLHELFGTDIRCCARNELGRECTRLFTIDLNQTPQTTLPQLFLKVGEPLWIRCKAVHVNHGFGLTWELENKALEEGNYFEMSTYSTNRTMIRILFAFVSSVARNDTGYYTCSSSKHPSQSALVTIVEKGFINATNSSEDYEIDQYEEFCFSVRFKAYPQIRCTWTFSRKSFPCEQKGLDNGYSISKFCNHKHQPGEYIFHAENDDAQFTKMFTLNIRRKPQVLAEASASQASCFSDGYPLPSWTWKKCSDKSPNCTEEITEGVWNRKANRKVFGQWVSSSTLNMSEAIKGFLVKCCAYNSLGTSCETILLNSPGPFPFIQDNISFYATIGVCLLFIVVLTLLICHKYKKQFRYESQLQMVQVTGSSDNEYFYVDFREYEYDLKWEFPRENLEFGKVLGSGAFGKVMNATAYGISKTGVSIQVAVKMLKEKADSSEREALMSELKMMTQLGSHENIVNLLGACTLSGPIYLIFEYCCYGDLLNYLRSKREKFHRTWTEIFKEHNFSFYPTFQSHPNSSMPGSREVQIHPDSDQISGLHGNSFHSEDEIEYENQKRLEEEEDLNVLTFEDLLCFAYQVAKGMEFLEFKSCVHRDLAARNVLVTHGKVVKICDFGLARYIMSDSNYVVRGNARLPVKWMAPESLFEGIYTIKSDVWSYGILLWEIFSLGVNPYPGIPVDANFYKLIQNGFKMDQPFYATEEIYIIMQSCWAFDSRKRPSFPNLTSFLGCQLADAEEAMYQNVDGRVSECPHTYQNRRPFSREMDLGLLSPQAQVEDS
The experiment in a line: Kinase-binding assay. To be noted: 10 μM; KINOMEscan profile.

The nature of data set [4]: Pharmacokinetic profile in mice. The settings on record: male, Swiss Albino, mouse, brain, iv, 1 mg/kg. It is filed as in vivo.
In data set [5] the target is LRRK2 (Mus musculus, UniProt Q5S006). The experiment in a line: Pharmacodynamic study of LRRK2 Ser910/Ser935 phosphorylation in mouse tissues. The class given is in vivo. The settings on record: intraperitoneal 100 mg/kg, normal mice.
Chain of LRRK2 (Q5S006 whole entry): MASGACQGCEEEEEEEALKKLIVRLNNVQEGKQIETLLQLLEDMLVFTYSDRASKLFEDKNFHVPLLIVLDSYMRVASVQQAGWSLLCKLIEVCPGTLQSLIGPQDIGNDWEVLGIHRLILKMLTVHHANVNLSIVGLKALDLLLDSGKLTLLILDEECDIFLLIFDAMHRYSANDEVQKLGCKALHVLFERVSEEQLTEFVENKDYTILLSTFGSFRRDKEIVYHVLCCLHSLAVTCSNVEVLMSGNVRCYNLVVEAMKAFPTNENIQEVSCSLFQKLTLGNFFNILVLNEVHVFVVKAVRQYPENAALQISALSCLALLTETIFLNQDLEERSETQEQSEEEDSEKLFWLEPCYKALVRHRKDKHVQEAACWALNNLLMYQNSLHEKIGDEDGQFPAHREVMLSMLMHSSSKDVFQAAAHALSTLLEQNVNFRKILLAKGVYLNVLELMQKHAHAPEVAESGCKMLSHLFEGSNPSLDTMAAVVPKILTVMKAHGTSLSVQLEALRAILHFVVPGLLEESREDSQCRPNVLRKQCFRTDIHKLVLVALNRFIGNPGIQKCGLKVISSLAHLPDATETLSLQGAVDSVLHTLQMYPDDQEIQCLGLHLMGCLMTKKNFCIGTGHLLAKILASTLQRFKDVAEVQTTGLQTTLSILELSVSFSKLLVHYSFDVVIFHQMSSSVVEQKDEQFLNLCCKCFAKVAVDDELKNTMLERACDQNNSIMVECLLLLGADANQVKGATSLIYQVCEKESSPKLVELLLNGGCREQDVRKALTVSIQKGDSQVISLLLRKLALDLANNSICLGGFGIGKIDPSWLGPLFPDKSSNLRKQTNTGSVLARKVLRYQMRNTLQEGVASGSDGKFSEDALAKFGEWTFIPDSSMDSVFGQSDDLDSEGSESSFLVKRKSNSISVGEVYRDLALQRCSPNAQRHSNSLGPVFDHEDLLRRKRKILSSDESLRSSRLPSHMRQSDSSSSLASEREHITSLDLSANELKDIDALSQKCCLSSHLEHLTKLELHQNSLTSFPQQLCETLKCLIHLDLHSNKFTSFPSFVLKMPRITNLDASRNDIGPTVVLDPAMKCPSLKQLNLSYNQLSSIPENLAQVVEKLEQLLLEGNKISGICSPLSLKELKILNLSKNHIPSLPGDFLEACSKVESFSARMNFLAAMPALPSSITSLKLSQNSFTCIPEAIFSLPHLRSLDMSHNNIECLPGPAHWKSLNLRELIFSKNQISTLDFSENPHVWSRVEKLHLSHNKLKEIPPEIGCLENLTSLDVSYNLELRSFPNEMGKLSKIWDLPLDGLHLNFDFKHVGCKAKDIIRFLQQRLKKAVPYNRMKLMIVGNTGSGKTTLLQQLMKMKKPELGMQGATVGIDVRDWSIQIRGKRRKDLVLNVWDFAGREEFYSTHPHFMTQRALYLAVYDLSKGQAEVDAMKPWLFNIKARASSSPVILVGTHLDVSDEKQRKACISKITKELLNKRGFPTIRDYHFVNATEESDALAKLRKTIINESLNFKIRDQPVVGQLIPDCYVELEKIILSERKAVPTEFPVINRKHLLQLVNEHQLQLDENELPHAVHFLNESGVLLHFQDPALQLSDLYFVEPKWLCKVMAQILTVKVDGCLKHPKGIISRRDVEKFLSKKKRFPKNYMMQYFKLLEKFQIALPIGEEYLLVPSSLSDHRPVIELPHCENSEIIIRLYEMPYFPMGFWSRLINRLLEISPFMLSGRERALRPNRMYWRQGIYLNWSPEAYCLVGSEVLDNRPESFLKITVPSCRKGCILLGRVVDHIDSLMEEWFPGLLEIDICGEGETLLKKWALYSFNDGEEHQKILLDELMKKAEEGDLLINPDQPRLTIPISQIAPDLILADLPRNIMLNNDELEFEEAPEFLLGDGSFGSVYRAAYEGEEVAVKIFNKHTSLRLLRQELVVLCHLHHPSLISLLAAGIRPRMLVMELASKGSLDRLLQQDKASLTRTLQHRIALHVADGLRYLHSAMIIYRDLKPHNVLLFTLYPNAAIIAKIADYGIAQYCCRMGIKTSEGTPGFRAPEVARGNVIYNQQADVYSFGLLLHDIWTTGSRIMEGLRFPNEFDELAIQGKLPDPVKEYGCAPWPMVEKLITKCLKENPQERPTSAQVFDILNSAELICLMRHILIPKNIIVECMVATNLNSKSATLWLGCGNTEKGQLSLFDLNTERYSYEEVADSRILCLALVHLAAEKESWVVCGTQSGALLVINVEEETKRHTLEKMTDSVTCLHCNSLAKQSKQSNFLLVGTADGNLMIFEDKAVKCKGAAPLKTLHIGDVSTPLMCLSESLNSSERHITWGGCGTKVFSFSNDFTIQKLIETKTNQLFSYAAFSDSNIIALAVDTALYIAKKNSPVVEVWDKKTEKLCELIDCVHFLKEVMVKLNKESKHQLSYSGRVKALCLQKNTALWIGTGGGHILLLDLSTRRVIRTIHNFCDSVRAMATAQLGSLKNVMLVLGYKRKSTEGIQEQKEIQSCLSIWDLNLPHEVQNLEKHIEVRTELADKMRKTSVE
For data set [6], the target named is T2, wild-type LRRK2 (GST-LRRK2(1326–2517)) (Homo sapiens, UniProt Q5S007).
T2 sequence (Q5S007 1326-2517): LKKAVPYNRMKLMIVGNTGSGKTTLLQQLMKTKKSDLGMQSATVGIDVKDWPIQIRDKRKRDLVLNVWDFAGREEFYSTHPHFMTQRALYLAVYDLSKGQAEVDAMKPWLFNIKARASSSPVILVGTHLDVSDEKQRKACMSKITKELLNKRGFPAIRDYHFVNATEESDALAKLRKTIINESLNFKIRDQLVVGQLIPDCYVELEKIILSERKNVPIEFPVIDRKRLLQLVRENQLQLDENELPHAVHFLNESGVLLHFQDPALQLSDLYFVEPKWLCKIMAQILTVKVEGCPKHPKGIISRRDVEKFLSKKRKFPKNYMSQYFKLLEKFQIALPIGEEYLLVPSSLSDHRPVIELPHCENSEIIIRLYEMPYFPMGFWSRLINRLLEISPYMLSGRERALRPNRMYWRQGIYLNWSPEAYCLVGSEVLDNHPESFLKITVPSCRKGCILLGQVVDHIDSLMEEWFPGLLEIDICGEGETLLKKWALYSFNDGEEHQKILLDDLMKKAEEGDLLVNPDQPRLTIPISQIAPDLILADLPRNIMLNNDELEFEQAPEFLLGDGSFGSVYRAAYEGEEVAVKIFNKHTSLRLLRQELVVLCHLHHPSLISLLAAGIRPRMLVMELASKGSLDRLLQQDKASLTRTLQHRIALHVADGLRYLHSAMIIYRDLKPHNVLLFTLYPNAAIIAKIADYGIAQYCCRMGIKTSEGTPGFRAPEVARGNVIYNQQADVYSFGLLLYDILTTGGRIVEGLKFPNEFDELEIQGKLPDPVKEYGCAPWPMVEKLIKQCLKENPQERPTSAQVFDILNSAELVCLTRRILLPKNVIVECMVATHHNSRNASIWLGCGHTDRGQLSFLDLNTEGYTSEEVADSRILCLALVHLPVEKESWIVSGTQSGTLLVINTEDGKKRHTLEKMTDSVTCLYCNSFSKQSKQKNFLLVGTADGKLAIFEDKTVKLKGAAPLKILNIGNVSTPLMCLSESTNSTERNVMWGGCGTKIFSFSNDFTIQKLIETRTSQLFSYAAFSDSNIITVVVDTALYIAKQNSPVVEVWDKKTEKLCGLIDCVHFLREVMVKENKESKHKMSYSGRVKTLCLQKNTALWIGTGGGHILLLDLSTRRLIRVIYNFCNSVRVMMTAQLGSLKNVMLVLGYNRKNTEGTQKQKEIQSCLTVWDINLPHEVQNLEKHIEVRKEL
The experiment in a line: LRRK2 enzyme activity assay.

For data set [7], the target named is GFP-LRRK2[A2016T] (Homo sapiens, UniProt Q5S007, A2016T). The experiment in a line: Ser910/Ser935 phosphorylation immunoblot in stably transfected HEK293 cells. The settings on record: 90 min.
Chain of GFP-LRRK2[A2016T] (Q5S007 whole entry A2016T): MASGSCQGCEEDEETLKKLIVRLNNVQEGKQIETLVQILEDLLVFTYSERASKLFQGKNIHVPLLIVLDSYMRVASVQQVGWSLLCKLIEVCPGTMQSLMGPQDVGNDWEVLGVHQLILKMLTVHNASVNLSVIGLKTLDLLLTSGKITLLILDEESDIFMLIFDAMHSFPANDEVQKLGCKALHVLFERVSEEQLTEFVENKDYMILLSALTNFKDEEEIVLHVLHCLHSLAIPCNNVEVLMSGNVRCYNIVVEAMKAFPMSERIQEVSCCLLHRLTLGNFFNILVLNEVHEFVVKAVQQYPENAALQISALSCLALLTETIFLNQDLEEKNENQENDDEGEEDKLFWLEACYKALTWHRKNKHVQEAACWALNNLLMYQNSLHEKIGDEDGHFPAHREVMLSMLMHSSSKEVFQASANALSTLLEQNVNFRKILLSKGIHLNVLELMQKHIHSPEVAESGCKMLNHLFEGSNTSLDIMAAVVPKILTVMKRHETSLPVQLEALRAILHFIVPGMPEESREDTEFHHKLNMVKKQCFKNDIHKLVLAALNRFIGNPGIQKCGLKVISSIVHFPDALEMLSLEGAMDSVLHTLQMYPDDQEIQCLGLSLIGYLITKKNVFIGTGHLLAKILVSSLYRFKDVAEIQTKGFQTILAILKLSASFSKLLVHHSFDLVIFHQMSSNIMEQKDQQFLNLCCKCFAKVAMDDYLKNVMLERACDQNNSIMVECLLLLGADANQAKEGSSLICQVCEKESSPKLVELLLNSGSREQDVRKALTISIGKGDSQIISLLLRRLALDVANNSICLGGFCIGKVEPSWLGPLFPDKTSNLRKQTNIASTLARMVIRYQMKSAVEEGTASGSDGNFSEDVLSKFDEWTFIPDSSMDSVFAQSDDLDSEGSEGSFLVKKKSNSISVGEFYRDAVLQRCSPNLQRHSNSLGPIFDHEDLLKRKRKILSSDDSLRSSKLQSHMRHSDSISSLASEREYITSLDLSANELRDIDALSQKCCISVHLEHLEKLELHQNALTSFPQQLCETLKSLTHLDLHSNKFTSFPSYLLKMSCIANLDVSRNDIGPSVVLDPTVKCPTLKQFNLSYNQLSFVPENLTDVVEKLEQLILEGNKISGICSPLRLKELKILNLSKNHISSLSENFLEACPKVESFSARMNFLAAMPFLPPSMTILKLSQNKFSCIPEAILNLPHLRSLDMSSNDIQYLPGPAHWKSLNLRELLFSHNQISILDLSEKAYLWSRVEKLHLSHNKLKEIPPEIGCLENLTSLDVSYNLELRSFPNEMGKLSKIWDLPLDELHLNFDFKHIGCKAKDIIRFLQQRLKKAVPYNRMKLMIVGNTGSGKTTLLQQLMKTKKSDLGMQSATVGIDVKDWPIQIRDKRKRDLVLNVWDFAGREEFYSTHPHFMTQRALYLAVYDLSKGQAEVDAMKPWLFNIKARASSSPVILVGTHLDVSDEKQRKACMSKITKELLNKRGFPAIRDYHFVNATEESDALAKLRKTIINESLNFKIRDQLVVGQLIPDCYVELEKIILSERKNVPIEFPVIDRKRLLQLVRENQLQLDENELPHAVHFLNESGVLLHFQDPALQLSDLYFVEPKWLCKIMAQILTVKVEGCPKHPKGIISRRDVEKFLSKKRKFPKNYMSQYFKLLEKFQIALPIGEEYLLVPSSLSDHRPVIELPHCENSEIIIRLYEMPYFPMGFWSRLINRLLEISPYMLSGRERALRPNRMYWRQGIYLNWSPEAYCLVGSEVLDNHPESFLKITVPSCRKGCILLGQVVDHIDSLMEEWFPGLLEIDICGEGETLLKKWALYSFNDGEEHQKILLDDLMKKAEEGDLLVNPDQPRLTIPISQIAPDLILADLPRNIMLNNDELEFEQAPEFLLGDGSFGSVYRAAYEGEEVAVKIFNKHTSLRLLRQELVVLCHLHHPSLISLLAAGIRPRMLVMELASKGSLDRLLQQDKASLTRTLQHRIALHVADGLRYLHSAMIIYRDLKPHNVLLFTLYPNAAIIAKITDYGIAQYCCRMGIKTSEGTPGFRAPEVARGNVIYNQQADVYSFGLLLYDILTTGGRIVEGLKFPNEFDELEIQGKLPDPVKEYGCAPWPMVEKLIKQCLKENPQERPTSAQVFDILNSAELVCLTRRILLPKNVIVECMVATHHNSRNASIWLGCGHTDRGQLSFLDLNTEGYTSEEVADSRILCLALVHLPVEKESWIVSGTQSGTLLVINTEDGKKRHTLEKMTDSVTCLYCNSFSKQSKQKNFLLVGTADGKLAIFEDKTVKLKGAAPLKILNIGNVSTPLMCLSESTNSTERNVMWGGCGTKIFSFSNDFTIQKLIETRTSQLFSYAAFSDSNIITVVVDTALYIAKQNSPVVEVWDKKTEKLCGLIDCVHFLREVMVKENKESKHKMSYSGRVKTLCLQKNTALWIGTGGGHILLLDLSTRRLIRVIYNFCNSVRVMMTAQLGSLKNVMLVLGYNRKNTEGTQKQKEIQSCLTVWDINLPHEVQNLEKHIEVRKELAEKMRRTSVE

“Also recorded” adds a separate entry of the source.

As usually defined, the inhibition is how much of the control response was suppressed. Usually clearance stands for a measure of how efficiently the substance is removed, as volume per time. Low readings indicate inefficient removal, high ones efficient removal. The term IC50 denotes the midpoint of a concentration-inhibition curve. A high value points to a need for much substance. For `O=C(Nc1cccnc1)c1cc(-c2ccnc(F)c2)ccc1OCc1ccccc1` [GSK2578215A, 2-(benzyloxy)-5-(2-fluoropyridin-4-yl)-N-(pyridin-3-yl)benzamide], in data set [1], the inhibition at 10 µM was over 50%. The ambit score in data set [2] and in data set [3] was under 10 throughout. For the same compound, the clearance in data set [4] was 22.1 mL/min/kg. For the same compound, in data set [5] (brain), the “inhibition of LRRK2 Ser910 or Ser935 phosphorylation in brain” value was “no inhibition; also recorded: failed to induce significant inhibition”. Besides, the “Ser910 and Ser935 dephosphorylation of LRRK2 in kidney” value in data set [5] (kidney) was “complete Ser910 and Ser935 dephosphorylation”. In addition, the “Ser910 and Ser935 dephosphorylation of LRRK2 in spleen” value in data set [5] (spleen) was “complete Ser910 and Ser935 dephosphorylation”. This compound registered a half-maximal inhibitory concentration (IC50) in data set [6] of about 10 nM. The “concentration inducing dephosphorylation of Ser910 and 935” value in data set [7] lay within 1 to 3 µM.
